Experimental data taken from the NIST ThermoML archive (doi:10.1021/acs.jced.5b00784).

Assays:
[1] = Liquid, isochoric method
[2] = xn = mol fraction of the nth substance listed; settings: Liquid, Vibrating tube method, x2 = 0.377

FC(C(F)(F)F)C(F)(F)F [1,1,1,2,3,3,3-heptafluoropropane]
[1]
Settings	mass density [kg/m3]
268.92 K, 1786 kPa	1509.3
271.83 K, 3840 kPa	1508.5
274.3 K, 5598 kPa	1508.1
277.7 K, 8059 kPa	1507.7
279.51 K, 839 kPa	1466.6
280.8 K, 10284 kPa	1507.3
281.32 K, 1993 kPa	1465.2
283.42 K, 3331 kPa	1464.8
283.61 K, 12288 kPa	1507
285.37 K, 4577 kPa	1464.6
286.43 K, 1142 kPa	1441.9
286.67 K, 1203 kPa	1440.9
286.7 K, 14495 kPa	1506.7
287.36 K, 5848 kPa	1464.3
288.43 K, 2193 kPa	1440
289.14 K, 2747 kPa	1440.7
289.31 K, 16361 kPa	1506.4
289.41 K, 7162 kPa	1464.1
290.44 K, 3367 kPa	1439.5
291.46 K, 8474 kPa	1463
292 K, 4466 kPa	1440.2
292.45 K, 4875 kPa	1439.1
293.4 K, 9717 kPa	1463.7
294.61 K, 5846 kPa	1438.9
294.98 K, 6251 kPa	1439.8
295.29 K, 10924 kPa	1463.5
296.72 K, 7101 kPa	1438
297.18 K, 12136 kPa	1463.3
297.85 K, 7978 kPa	1439.5
298.7 K, 8273 kPa	1438.5
299.38 K, 13527 kPa	1463.1
300.87 K, 9562 kPa	1438.2
300.89 K, 9788 kPa	1439.2
301.4 K, 14839 kPa	1462.9
302.74 K, 10686 kPa	1438.1
302.94 K, 15829 kPa	1462.8
303.82 K, 11544 kPa	1438.9
304.8 K, 11916 kPa	1437.9
306.88 K, 13381 kPa	1438.6
306.95 K, 13205 kPa	1437.7
309 K, 14427 kPa	1437.5
310.05 K, 15281 kPa	1438.3
311.05 K, 15654 kPa	1437.3
312.85 K, 16727 kPa	1437.1
312.95 K, 17014 kPa	1438

COC(F)(F)C(F)(C(F)(F)F)C(F)(F)F [methyl nonafluoroisobutyl ether] + COC(F)(F)C(F)(F)C(F)(F)C(F)(F)F
[2]
Settings	mass density [kg/m3]
275.02 K, 1984 kPa	1579.6
277.09 K, 3723 kPa	1579.2
279.26 K, 5543 kPa	1578.7
279.43 K, 273 kPa	1564.5
279.75 K, 524 kPa	1564.4
279.75 K, 527 kPa	1564.4
280.37 K, 972 kPa	1563.7
280.46 K, 1101 kPa	1564.3
280.94 K, 1442 kPa	1564.2
281.34 K, 7289 kPa	1578.3
281.55 K, 1942 kPa	1563.5
281.92 K, 2278 kPa	1564
281.94 K, 2249 kPa	1564
282.38 K, 2648 kPa	1563.9
283.21 K, 3315 kPa	1563.7
283.5 K, 9101 kPa	1577.9
283.65 K, 3673 kPa	1563.6
284.04 K, 3949 kPa	1563.6
284.44 K, 4290 kPa	1563.5
285.1 K, 4838 kPa	1563.3
285.42 K, 5083 kPa	1563.3
285.49 K, 10769 kPa	1577.5
285.94 K, 5471 kPa	1563.2
286.26 K, 5744 kPa	1563.1
286.26 K, 5757 kPa	1563.1
286.61 K, 5994 kPa	1562.5
286.95 K, 6330 kPa	1562.9
287.26 K, 6535 kPa	1562.3
287.54 K, 6765 kPa	1562.9
287.54 K, 6789 kPa	1562.9
287.59 K, 12510 kPa	1577.1
287.68 K, 6872 kPa	1562.8
288.04 K, 7178 kPa	1562.8
288.9 K, 7893 kPa	1562.5
289.56 K, 14156 kPa	1576.7
289.6 K, 8425 kPa	1562.5
289.6 K, 8448 kPa	1562.5
289.6 K, 8462 kPa	1562.2
289.72 K, 8502 kPa	1562.4
291.62 K, 15869 kPa	1576.2
291.67 K, 10052 kPa	1562
291.67 K, 10070 kPa	1562
291.67 K, 10101 kPa	1562
292.61 K, 10815 kPa	1561.9
292.7 K, 10872 kPa	1561.2
293.44 K, 11481 kPa	1561.7
293.52 K, 17446 kPa	1575.9
294.31 K, 12183 kPa	1561.5
295.32 K, 12982 kPa	1561.3
295.59 K, 19153 kPa	1575.4
296.29 K, 13751 kPa	1561.1
298.57 K, 15560 kPa	1560.7
299.64 K, 16411 kPa	1560.5
300.65 K, 17215 kPa	1560.3
301.34 K, 17761 kPa	1560.1
302.6 K, 18751 kPa	1559.9
302.6 K, 18786 kPa	1559.9
